The record followed here is the supplement of paper PMC10307832.

Holding throughout (assay): relative viability (nuclei count vs DMSO), 5 days (fraction); higher = more cells survive
Compound in assay [1]: C1CC(C2=C(C1)C3=C(N2)C=CC(=C3)Cl)C(=O)N [Selisistat] + O=C(c1cc(Cc2n[nH]c(=O)c3ccccc23)ccc1F)N1CCN(C(=O)C2CC2)CC1 [Olaparib] (partner 8 µM)
A digest of the protocol: (§1)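 Lung cancer cell lines were pin-tool dosed in 1536-well plates on the day after seeding, with either a lone drug or a fixed anchor-drug dose plus five library-drug doses (not always all listed) in √10 steps. Nuclei were counted on 4× images after 5 days. Relative viability is the ratio of treated-well to vehicle-well nuclei counts, with each value a median of duplicate plates.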

Compound in assay [2]: c1ccc2c(CCNc3ccc(Nc4ccncc4)cc3)c[nH]c2c1 [Serdemetan] + CC(=O)Nc1cccc(-n2c(=O)n(C3CC3)c(=O)c3c(Nc4ccc(I)cc4F)n(C)c(=O)c(C)c32)c1 [Trametinib] (partner 0.02 µM)
The method in brief: as §1

Compound in assay [3]: c1ccc2c(CCNc3ccc(Nc4ccncc4)cc3)c[nH]c2c1 [Serdemetan] + COc1cccc2cc(-c3nc([C@H]4CC[C@H](C(=O)O)CC4)n4ncnc(N)c34)[nH]c12 [OSI-027] (partner 0.5 µM)
A digest of the protocol: as §1

Compound in assay [4]: c1ccc2c(CCNc3ccc(Nc4ccncc4)cc3)c[nH]c2c1 [Serdemetan] + C[C@@H](Oc1cc(-c2cnn(C3CCNCC3)c2)cnc1N)c1c(Cl)ccc(F)c1Cl [Crizotinib] (partner 1 µM)
The method in brief: as §1

Consider NCI-H2342, for which the relative viability in assay [1] (first compound 0.4 µM) is 0.4; in assay [1] (first compound 1.265 µM), 0.397; in assay [1] (first compound 4 µM), 0.468; in assay [1] (first compound 12.65 µM), 0.475; in assay [1] (first compound 40 µM), 0.461; in assay [2] (first compound 0.04 µM), 0.818. Besides, the relative viability in assay [2] (first compound 0.1265 µM) turned out to be 0.84; in assay [2] (first compound 0.4 µM), 1.12; in assay [2] (first compound 1.265 µM), 0.789; in assay [2] (first compound 4 µM), 0.669; in assay [3] (first compound 0.04 µM) it was 0.66; in assay [3] (first compound 0.1265 µM) it was 0.648. Further, the relative viability in assay [3] (first compound 0.4 µM) is 0.731; in assay [3] (first compound 1.265 µM), 0.666; in assay [3] (first compound 4 µM), 0.512.
Regarding SK-MES-1, the relative viability in assay [1] (first compound 0.4 µM) stood at 0.769; in assay [1] (first compound 1.265 µM), 0.717; in assay [1] (first compound 4 µM), 0.823; in assay [1] (first compound 12.65 µM) it was 0.736; in assay [1] (first compound 40 µM), 0.809; in assay [2] (first compound 0.04 µM), 0.48. Moreover, the relative viability in assay [2] (first compound 0.1265 µM) was 0.538; in assay [2] (first compound 0.4 µM), 0.531; in assay [2] (first compound 1.265 µM) it was 0.532; in assay [2] (first compound 4 µM), 0.563; in assay [3] (first compound 0.04 µM), 0.572; in assay [3] (first compound 0.1265 µM), 0.578. In addition, the relative viability was 0.621 in assay [3] (first compound 0.4 µM); 0.541 in assay [3] (first compound 1.265 µM); 0.447 in assay [3] (first compound 4 µM); 0.983 in assay [4] (first compound 0.04 µM); 0.976 in assay [4] (first compound 0.1265 µM); 0.898 in assay [4] (first compound 0.4 µM). The relative viability in assay [4] (first compound 1.265 µM) amounted to 0.647; in assay [4] (first compound 4 µM) it was 0.56.
As to HCC-366, the relative viability came out at 0.306 in assay [1] (first compound 0.4 µM); 0.344 in assay [1] (first compound 1.265 µM); 0.359 in assay [1] (first compound 4 µM); 0.364 in assay [1] (first compound 12.65 µM); 0.387 in assay [1] (first compound 40 µM); 0.279 in assay [2] (first compound 0.04 µM). The relative viability was found to be 0.114 in assay [2] (first compound 0.1265 µM); 0.0617 in assay [2] (first compound 0.4 µM); 0.0278 in assay [2] (first compound 1.265 µM); 0.0741 in assay [2] (first compound 4 µM); 0.87 in assay [3] (first compound 0.04 µM); 0.858 in assay [3] (first compound 0.1265 µM). In addition, the relative viability turned out to be 0.733 in assay [3] (first compound 0.4 µM); 0.173 in assay [3] (first compound 1.265 µM); 0.122 in assay [3] (first compound 4 µM); 0.528 in assay [4] (first compound 0.04 µM); 0.412 in assay [4] (first compound 0.1265 µM); 0.117 in assay [4] (first compound 0.4 µM). For the same cell line, the relative viability stood at 0.0254 in assay [4] (first compound 1.265 µM) and 0.0545 in assay [4] (first compound 4 µM).
With 201T, the relative viability in assay [1] (first compound 0.4 µM) was 0.85; in assay [1] (first compound 1.265 µM), 0.841; in assay [1] (first compound 4 µM), 0.827; in assay [1] (first compound 12.65 µM), 0.823; in assay [1] (first compound 40 µM), 0.843; in assay [2] (first compound 0.04 µM), 0.769. Also, the relative viability in assay [2] (first compound 0.1265 µM) stood at 0.687; in assay [2] (first compound 0.4 µM) it was 0.736; in assay [2] (first compound 1.265 µM) it was 0.653; in assay [2] (first compound 4 µM), 0.631; in assay [3] (first compound 0.04 µM) it was 0.584; in assay [3] (first compound 0.1265 µM) it was 0.676. Also, the relative viability was determined as 0.76 in assay [3] (first compound 0.4 µM); 0.664 in assay [3] (first compound 4 µM); 1.05 in assay [4] (first compound 0.04 µM); 1.03 in assay [4] (first compound 0.1265 µM); 0.948 in assay [4] (first compound 0.4 µM); 0.927 in assay [4] (first compound 1.265 µM). The relative viability in assay [4] (first compound 4 µM) came to 0.879.
As for HCC-827, the relative viability in assay [1] (first compound 0.4 µM) came out at 0.678; in assay [1] (first compound 1.265 µM), 0.741; in assay [1] (first compound 4 µM) it was 0.672; in assay [1] (first compound 12.65 µM) it was 0.647; in assay [1] (first compound 40 µM) it was 0.627; in assay [2] (first compound 0.04 µM) it was 0.543. For the same cell line, the relative viability in assay [2] (first compound 0.1265 µM) is 0.603; in assay [2] (first compound 1.265 µM), 0.359; in assay [2] (first compound 4 µM), 0.318; in assay [3] (first compound 0.04 µM), 0.787; in assay [3] (first compound 0.1265 µM), 0.743; in assay [3] (first compound 1.265 µM), 0.696. Moreover, the relative viability in assay [3] (first compound 4 µM) stood at 0.627; in assay [4] (first compound 0.04 µM), 0.948; in assay [4] (first compound 0.1265 µM), 0.867; in assay [4] (first compound 1.265 µM), 0.791; in assay [4] (first compound 4 µM) it was 0.615.
For NCI-H647, the relative viability stood at 0.622 in assay [1] (first compound 0.4 µM); 0.577 in assay [1] (first compound 1.265 µM); 0.736 in assay [1] (first compound 4 µM); 0.48 in assay [1] (first compound 12.65 µM); 0.591 in assay [1] (first compound 40 µM); 0.482 in assay [2] (first compound 0.04 µM). Besides, the relative viability in assay [2] (first compound 0.1265 µM) is 0.475; in assay [2] (first compound 0.4 µM), 0.558; in assay [2] (first compound 1.265 µM), 0.361; in assay [2] (first compound 4 µM), 0.304; in assay [3] (first compound 0.04 µM), 0.609; in assay [3] (first compound 0.1265 µM) it was 0.634. Also, the relative viability came to 0.751 in assay [3] (first compound 0.4 µM); 0.585 in assay [3] (first compound 1.265 µM); 0.648 in assay [3] (first compound 4 µM); 0.978 in assay [4] (first compound 0.04 µM); 1.16 in assay [4] (first compound 0.1265 µM); 0.983 in assay [4] (first compound 0.4 µM). Moreover, the relative viability in assay [4] (first compound 1.265 µM) was 0.583; in assay [4] (first compound 4 µM), 0.637.
Consider NCI-H2023, for which the relative viability in assay [1] (first compound 0.4 µM) was determined as 0.555; in assay [1] (first compound 1.265 µM), 0.443; in assay [1] (first compound 4 µM), 0.523; in assay [1] (first compound 12.65 µM), 0.413; in assay [1] (first compound 40 µM) it was 0.435; in assay [2] (first compound 0.04 µM), 0.616. For the same cell line, the relative viability stood at 0.538 in assay [2] (first compound 0.1265 µM); 0.522 in assay [2] (first compound 0.4 µM); 0.223 in assay [2] (first compound 1.265 µM); 0.298 in assay [2] (first compound 4 µM); 0.395 in assay [3] (first compound 0.04 µM); 0.383 in assay [3] (first compound 0.1265 µM). Besides, the relative viability in assay [3] (first compound 0.4 µM) came out at 0.324; in assay [3] (first compound 1.265 µM), 0.255; in assay [3] (first compound 4 µM) it was 0.191; in assay [4] (first compound 0.04 µM), 0.688; in assay [4] (first compound 0.1265 µM), 0.644; in assay [4] (first compound 0.4 µM), 0.452. Besides, the relative viability in assay [4] (first compound 1.265 µM) was 0.286; in assay [4] (first compound 4 µM), 0.237.
